According to patent US20200341000A1, “METHOD OF SCREENING COMPOUNDS FOR TREATING CNS DISORDERS” (SAGE THERAPEUTICS, INC., priority 2017, published 2020):

Assays:
[1] = tested on: GT1-7 cells (co-express mPRα and GABAARs), β3 S408/9 phosphorylation; assay: Immunoblot of β3 S408/9 phosphorylation in GT1-7 cells; format: cell-based; conditions: 100 nM, 15 min; n=6
Protocol: GT1-7 cells that co-express mPRα and GABAARs were used to measure the level of phosphorylation at S408/9 position of β3 subunit. Quantitative PCR analysis indicated the enrichment of the mPRα mRNA in GT1-7 cells (FIG. 15A upper, figure taken from Thomas and Pang 2012). Expression of mPRα was confirmed using western blotting. 10 and 15 μg of SDS-soluble extracts from GT1-7 cells were immunoblotted with an mPRα specific antibody (FIG. 15A lower).
GT1-7 cells were treated with 100 nM AllO or P4 for 15 min and immunoblotted with antibodies specifically recognizing β3, actin, and […] β3 subunit (pS408/9). The ratio of pS408/9 β3 subunit immunoreactivity were then normalized to levels seen in vehicle treated to controls, n=6.

[2] = tested on: GABA-evoked currents in GT1-7 cells; assay: Patch-clamp of GABA-induced currents in GT1-7 cells, compound in the pipette electrolyte; format: cell-based; conditions: 100 nM in electrolyte, GABA EC20, 20 min time course
Protocol: Patch-clamp recordings were made from GT1-7 cells. The magnitude of the GABA-induced currents (IGABA) at EC20 agonists concentration were then measured, in the presence of control electrolyte or that supplemented with 100 nM ALLO, or 100 nM ORG OD 02-0 over a time course of 20 min.

[3] = tested on: GABAA receptor α4 subunit S443 phosphorylation; assay: Immunoblot of α4 S443 phosphorylation in hippocampal slices; format: cell-based, mice; conditions: 100 SGE-516 for 5 min
Protocol: Treatment of hippocampal slices with SGE-516 increased the phosphorylation of S408/9 measured using pS408/9 antibodies. To produce antibodies specific for phosphorylated S443, rabbits were injected with a synthetic peptide corresponding to residues […] of the murine α4 subunit in which the serine residue corresponding to S443 was chemically phosphorylated; […]. Hippocampal slices were treated with vehicle (Con), or SGE-516 for 20 min. Slices were immunoblotted with pS408/9, β3, or actin antibodies. The ratio of pS408/9/β3 immunoreactivity was then normalized to control slices (100%=the line).
Affinity purified pS443 was used to immunoblot varying concentrations of the immunizing phosphor-peptide (PP). pS443 was used to immunoblot extracts of hippocampal slices treated without preadsorption (0), preadsorbed with the dephosphorylated (DP), or phosphorylated antigen (PP). […] Moreover, the detection of this band was blocked by the phospho- but not the dephospho-antigen (FIG. 7B).
Hippocampal slices were treated with vehicle (Con) or 100 SGE-516 for 5 min and then immunoblotted with pS443 and α4 antibodies as indicated. pS443 immunoreactivity in hippocampal slices was increased by exposure to SGE-516, while total α4 levels were unaffected (FIG. 7C).

[4] = tested on: sIPSCs in dentate gyms granule cells (DGGCs); assay: sIPSCs in DGGCs after 15 min exposure and >30 min wash; format: cell-based, mice
Protocol: For tonic current measurements, an all-points histogram was plotted for a 10 s period before and during 100 μM picrotoxin application, once the response reached a plateau level. Recordings with unstable baselines were discarded. Fitting the histogram with a Gaussian distribution gave the mean baseline current amplitude and the difference between the amplitudes before and during picrotoxin was considered to be the tonic current. The negative section of the all-points histogram which corresponds to the inward IPSCs was not fitted with a Gaussian distribution (Kretschmannova et al., 2013; Nusser and Mody, 2002). Series resistance and whole-cell capacitance were continually monitored and compensated throughout the course of the experiment. Recordings were eliminated from data analysis if series resistance increased by >20%. Spontaneous inhibitory post-synaptic currents (sIPSCs) were analyzed using the mini-analysis software (version 5.6.4; Synaptosoft, Decatur, Ga.). Minimum threshold detection was set to 3 times the value of baseline noise signal. […] Only recordings with a minimum of 200 events fitting these criteria were analyzed. sIPSCs amplitude, and frequency from each experimental condition was pooled and expressed as mean±SEM. To measure sIPSC decay, 100 consecutive events were averaged and the decay was fitted to a double exponential and the weighted decay constant (tw) was determined. […]

[5] = tested on: tonic current in DGGCs (β3 S408/9A mutant); assay: Sustained effect on tonic current in DGGCs from S408/9A mice; format: cell-based; conditions: 100 nM, slices from S408/9A mice

SMILES | S408/9 phosphorylation (pS408/9/β3) in GT1-7 cells [1] | GABA-evoked currents (IGABA) over time [2] | pS443 immunoreactivity [3] | total α4 levels [3] | enhancement of sIPSC amplitude with GFX ([4]; 100 nM SGE-516 plus GFX) | sIPSC amplitude after exposure and wash ([4]; 100 nM, 15 min, washed >30 min) | tonic current in DGGCs after incubation and extensive washout [5]
CC(=O)[C@H]1CC[C@H]2[C@@H]3CC[C@H]4C[C@H](O)CC[C@]4(C)[C@H]3CC[C@]12C [ALLO, Allopregnanolone] | increase | sustained increases | – | – | – | – | –
C[C@@]1(O)CC[C@H]2[C@H](CC[C@@H]3[C@@H]2CC[C@]2(C)[C@@H](C(=O)Cn4nccn4)CC[C@@H]32)C1 [SGE-516] | – | – | increased | unaffected | significantly reduced | significantly enhanced | did not modify
